Results as given in ChEMBL document CHEMBL1201862, “PubChem BioAssay data set” (2004).
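96-well plates; 48 h exposure; 5 concentrations. Endpoints by linear interpolation between flanking doses. Not reached: highest tested concentration assigned. The concentration for 50% growth inhibition is given as GI50.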 Active and inactive are the calls of the source. No stated cut-off is given here; in the data, active = GI50 up to about 1.1 µM and inactive = higher.

Key:
Experiment in all cases: growth of human tumour cells (NCI), 48 h
[1] = test system: COLO 205
[2] = test system: SN12C
[3] = test system: NCI-H226
[4] = test system: SK-MEL-5
[5] = test system: SK-MEL-2
[6] = test system: SK-MEL-28
[7] = test system: SW-620
[8] = test system: SF-539
[9] = test system: SK-OV-3
[10] = test system: BT-549
[11] = test system: OVCAR-8
[12] = test system: HT-29
[13] = test system: K562
[14] = test system: KM12
[15] = test system: LOX IMVI
[16] = test system: Malme-3M
[17] = test system: ACHN
[18] = test system: NCI-H460
[19] = test system: MCF7
[20] = test system: EKVX

Measured: GI50

CCOC(=O)C1(C(=O)OCC)[C@@H](c2ccccc2)C2=NO[C@@H]3CCC[C@H]1[C@H]23
inactive: [1] 29 µM | [2] > 100 µM | [3] 78.5 µM | [4] 24.3 µM | [5] 55.5 µM | [6] > 100 µM | [7] 43.8 µM | [8] 96.2 µM | [9] 53.6 µM | [10] 42.7 µM | [11] 58.9 µM | [12] 45.4 µM | [13] 52.5 µM | [14] 28.9 µM | [15] 81.1 µM | [16] > 100 µM | [17] 66.7 µM | [18] 57.7 µM | [19] 41.7 µM | [20] 34.7 µM

O=C(O)C(Cc1ccc2c(c1)CCC2)(Cc1ccc2c(c1)CCC2)C(=O)O
inactive: [1] > 100 µM | [2] > 100 µM | [3] > 100 µM | [4] > 100 µM | [5] > 100 µM | [6] > 100 µM | [7] > 100 µM | [8] > 100 µM | [9] > 100 µM | [10] > 100 µM | [11] > 100 µM | [12] > 100 µM | [13] > 100 µM | [14] > 100 µM | [15] > 100 µM | [16] > 100 µM | [17] > 100 µM | [18] > 100 µM | [19] > 100 µM | [20] > 100 µM

Cc1c(-c2ccccc2)n[nH]c1NC1(C)C(=O)N(/N=C/c2ccccc2)N=C1c1ccccc1 (stereo not given)
inactive: [1] > 30.5 µM | [2] > 19.9 µM | [3] > 100 µM | [4] 7.96 µM | [5] > 84.1 µM | [6] > 100 µM | [7] > 93.3 µM | [8] > 100 µM | [9] > 100 µM | [10] > 100 µM | [11] > 100 µM | [12] > 100 µM | [13] 6.15 µM | [14] 38.6 µM | [15] > 100 µM | [16] > 100 µM | [17] 24.7 µM | [18] > 62.5 µM | [19] 4.78 µM | [20] > 91.6 µM
